Test results: patent US7384975B2, “Substituted furochromenes, preparation thereof and their antiinflammatory action” (GlaxoSmithKline Istrazivacki Centar Zagreb d.o.o., priority 2003, dated 2008)

Test system: Balb/C mice
Test: Model of lung eosinophilia in mice (ovalbumin sensitization and provocation)
Assay type: in vivo
Details: i.n. 2 mg/kg daily from 2 days prior to the provocative test until the end, lavage 48 hours after ovalbumin provocation
Procedure: Model of Lung Eosinophilia in Mice
Male Balb/C mice (Charles River) of 20-25 g of body weight were randomly divided into groups. They were sensitized by i.p. application of ovalbumin (Sigma) on days zero and fourteen. On day twenty the mice were subjected to a provocative test by i.n. application of ovalbumin (positive control and test groups) or PBS (negative control). After 48 hours the animals were anesthetized and the lungs were rinsed with 1 mL of PBS. The cells were centrifuged on Cytospin 3 cytocentrifuge (Shandon). Then the cells were stained with Diff-Quick (Dade) and the percentage of eosinophils was determined by differential counting of at least 100 cells.
Beclomethazone was used as a standard substance in addition to positive and negative controls. The compound was applied daily i.n. in a dose of 2 mg/kg for 2 days prior to the provocative test and until the end of the investigation.
The compound 13 reduced the number of eosinophils in the lavage and histological preparations of lungs for 50% in relation to the positive control group.

## O=c1oc2cc(O)cc(O)c2c(O)c1-c1cc2c(=O)oc3cc(O)cc(O)c3c2o1 [Compound 13, 7,9-Dihydroxy-2-(4,5,7-trihydroxy-2-oxo-2H-chromene-3-yl)-4H-furo[3,2-c]chromene-4-one]
  reduction of the number of eosinophils in the lavage and histological preparations of lungs in relation to the positive control group: 50%
